Tests used:
glucocorticoid receptor = molecular target: T1, glucocorticoid receptor (Homo sapiens, UniProt P04150); settings: compared with parent CDB-4124; cited from earlier work
T1 sequence (P04150 1-777): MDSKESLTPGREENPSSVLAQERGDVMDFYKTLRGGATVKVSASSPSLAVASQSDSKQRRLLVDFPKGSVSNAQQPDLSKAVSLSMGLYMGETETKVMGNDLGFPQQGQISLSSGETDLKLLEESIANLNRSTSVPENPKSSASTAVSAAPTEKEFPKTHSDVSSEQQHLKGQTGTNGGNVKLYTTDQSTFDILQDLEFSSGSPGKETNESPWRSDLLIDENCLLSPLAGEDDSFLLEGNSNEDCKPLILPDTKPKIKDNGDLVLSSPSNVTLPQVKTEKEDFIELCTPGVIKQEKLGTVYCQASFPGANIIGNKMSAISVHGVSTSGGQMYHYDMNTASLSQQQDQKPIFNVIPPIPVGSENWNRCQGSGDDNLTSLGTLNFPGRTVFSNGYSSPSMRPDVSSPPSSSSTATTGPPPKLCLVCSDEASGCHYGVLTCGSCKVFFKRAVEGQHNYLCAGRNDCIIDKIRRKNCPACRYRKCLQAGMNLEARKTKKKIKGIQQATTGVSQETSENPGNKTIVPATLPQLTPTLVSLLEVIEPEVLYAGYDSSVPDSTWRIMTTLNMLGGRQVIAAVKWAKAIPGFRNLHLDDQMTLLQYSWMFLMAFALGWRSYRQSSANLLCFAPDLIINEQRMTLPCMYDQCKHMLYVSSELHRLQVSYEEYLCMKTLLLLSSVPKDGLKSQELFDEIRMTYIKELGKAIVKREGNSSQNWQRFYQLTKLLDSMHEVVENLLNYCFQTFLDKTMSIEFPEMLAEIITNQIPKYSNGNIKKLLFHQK

[1] = Urinary estrogen levels (follicular phase) in cynomolgus monkeys; type: in vivo, Cynomolgus monkeys (Macaca fascicularis); design: Urinary estrogen, follicular phase, Mean: unit not given here; settings: for Urinary estrogen, follicular phase, Mean: CDB-4124 or RU-486 oral 1.0 mg/kg/day, Lupron IM once per month
Experimental: Cynomolgus monkeys (Macaca fascicularis) (n=14) were treated orally for 36 weeks with CDB-4124 or RU-486 at 1.0 mg/kg/day or with placebo (control). Another group (n=14) received Lupron® IM once per month. Urinary progesterone levels were measured for each animal for one month during the middle of the study (weeks 14-17) and for the last month of the study (weeks 33-36). The results are presented below:
Urinary estrogen levels were measured for each animal of Example 6 for one month during the middle of the study (weeks 14-17) and for the last month of the study (weeks 33-36). The follicular phase results are based on 35 baseline ovulating cycles.

[2] = system: Cynomolgus monkey endometrial epithelium, uterus stroma and breast; experiment: TUNEL apoptosis in cynomolgus monkey tissue; type: in vivo, Cynomolgus monkeys (Macaca fascicularis); settings: week 36, percent apoptotic cells
Experimental: Apoptosis was assessed in tissue from the same animals on slides by the terminal deoxynucleotidyl transferase mediated dUTP-biotin nick end labeling (TUNEL) technique.

[3] = Urinary progesterone levels (luteal phase) in cynomolgus monkeys; type: in vivo, Cynomolgus monkeys (Macaca fascicularis); settings: n=14 per group; CDB-4124 or RU-486 oral 1.0 mg/kg/day for 36 weeks; Lupron IM once per month
Experimental: Cynomolgus monkeys (Macaca fascicularis) (n=14) were treated orally for 36 weeks with CDB-4124 or RU-486 at 1.0 mg/kg/day or with placebo (control). Another group (n=14) received Lupron® IM once per month. Urinary progesterone levels were measured for each animal for one month during the middle of the study (weeks 14-17) and for the last month of the study (weeks 33-36).

[4] = system: Cynomolgus monkey endometrial epithelia, uterus stroma and breast; experiment: BrdU incorporation, tissue proliferation in cynomolgus monkeys; type: in vivo, Cynomolgus monkeys (Macaca fascicularis); settings: week 36, % cells positive for incorporation of BrdU, three animals per group
Experimental: At week 36, three animals from each group of Example 6 were injected within 24 hours of sacrifice with the thymidine analog bromodeoxyuridine (BrdU), a marker of proliferating cells and their progeny, to assess tissue proliferation. Full thickness uterine sections were stained and examined microscopically for evidence of proliferation in terms of the % cells positive for incorporation of BrdU: […]

human endometrium = experiment: Six month endometriosis study: ultrasound measurements of endometrial thickness; type: in vivo
Text: Women in the study were closely monitored for changes in the structure of the endometrium. […] Comparisons were made to both baseline and visit one ultrasound measurements of endometrial thickness. […]

[5] = in vivo
Experimental: Thirty-nine pre-menopausal adult women diagnosed with endometriosis were the subject of a six month study of Proellex™ (CDB-4124) in the treatment of endometriosis. The study included three dose levels of CDB-4124 as well as a positive control arm. The positive control was Lucrin®, a GnRH agonist, commonly used for the treatment of endometriosis (also known as Lupron®). CDB-4124 was administered in a double blinded fashion as a daily oral capsule at dosages of 12.5mg/day (n=2), 25mg/day (n=3) and 50mg/day (n=3). Another group (n=4) were injected with a slow release formulation of Lucrin® once per month as a positive control.

[6] = system: pre-menopausal adult women diagnosed with endometriosis; experiment: Six month endometriosis study: pain diaries and pain intensity surveys; type: in vivo, human
Experimental: Pain reduction also occurred more rapidly than with the active control, Lucrin®. The response of pain to treatment in this study was analyzed in two ways. Patients in the study maintained daily pain diaries to record the severity and frequency of pain. In addition, at each office visit, patients filled out endometriosis symptom surveys that included a questionnaire that evaluated intensity of pain on a bad day on a scale of 0-10 with 10 being the greatest intensity. […] This decrease in duration of pain was statistically better (p=0.0012) than the 117.8 (74%; standard deviation 51.4 days) pain free days achieved with Lucrin n. […] Patients on CDB-4124 12.5 mg and 25 mg doses had 115.9 (66%; standard deviation 69.2 days) and 133.6 (75%; standard deviation 27.4 days) pain free days, respectively. […] The 25 mg and 12.5 mg doses of CDB-4124 were not statistically different from Lucrin®. […] The intensity of pain was asked by the question: “On a scale of 1-10, with 0 being no pain and 10 being extreme pain, how intense was your pain on a bad day?” The mean scores for intensity of pain at baseline were 6.3 for the CDB-4124 groups and 6.1 for the Lucrin® group. […] At month three all four active treatment groups had satistically significant reduction in pain compared with baseline, with the following scores: 3.7 (p=0.03) for 12.5 mg CDB-4124, 3.2 (p=0.03) for 25 mg CDB-4124, 1.6 (p=0.015) for 50 mg CDB-4124 and 1.5 (p=0.016) for Lucrin®. These dose related reductions continued until month six when the values for pain intensity were 2.0 (p=0.008), 2.8 (p=0.023), 0.6 (p=0.004) and 0.7 (p=0.016), respectively. Two months after stopping treatment pain returned and was of similar intensity in all four treatment groups.

**Q.** Which anti-glucocorticoid activity (glucocorticoid receptor) does the source give for `CNc1ccc([C@H]2C[C@@]3(C)[C@@H](CC[C@]3(OC(C)=O)C(=O)COC)[C@@H]3CCC4=CC(=O)CCC4=C32)cc1` [CDB-4453, 21-methoxy-17α-acetoxy-11β-(4-N-methylaminophenyl)-19-norpregna-4,9-diene-3,20-dione] here?
**A.** even lower anti-glucocorticoid activity than its parent

**Q.** What does the source list for `CCNC(=O)[C@@H]1CCCN1C(=O)[C@H](CCCNC(=N)N)NC(=O)[C@H](CC(C)C)NC(=O)[C@@H](CC(C)C)NC(=O)[C@H](Cc1ccc(O)cc1)NC(=O)[C@H](CO)NC(=O)[C@H](Cc1c[nH]c2ccccc12)NC(=O)[C@H](Cc1c[nH]cn1)NC(=O)[C@@H]1CCC(=O)N1` [Lupron ®, leuprolide acetate]?
**A.** Follicular phase estrogen Lower? ([1]; Week 18): Yes; Urinary estrogen, follicular phase, Mean ([1]; Week 18): 49.9; Follicular phase estrogen Lower? ([1]; Week 36): Yes; Urinary estrogen, follicular phase, Mean ([1]; Week 36): 41.7; Breast Apo % [2]: 1.4 ± 0.7%; Uterus epithelium Apo % [2]: 0.2 ± 0.1%; Uterus stroma Apo % [2]: 0.2 ± 0.1%; Decrease in luteal phase progesterone (number of animals) [3]: 13; No decrease in luteal phase progesterone (number of animals) [3]: 1; Breast Brdu-% [4]: 0.3 ± 0.1%; Uterus epithelium Brdu-% [4]: 3.1 ± 0.8%; Uterus stroma Brdu-% [4]: 2.2 ± 1.0%; thickening of the endometrium after three months (human endometrium; Lucrin, five women): did not have a thickening of the endometrium; Endometrium (mm), 1st dose (human endometrium; Lupron once per month, 1st dose visit): 7.5 mm; Endometrium (mm), 3 months (human endometrium; Lupron once per month, 3 months): 2.75 mm; Endometrium (mm), screening (human endometrium; Lupron once per month, screening (baseline)): 7.9 mm; biomarkers of bone resorption compared with baseline [5]: statistically significant increase; estrogen level [5]: < 20 pg/mL; mean score for intensity of pain on a bad day (scale 0-10) ([6]; baseline): 6.1; score for intensity of pain on a bad day (scale 0-10) ([6]; month six, Lucrin once per month): 0.7; score for intensity of pain on a bad day (scale 0-10) ([6]; month three, Lucrin once per month): 1.5; pain free days over the 180 day treatment period ([6]; women, Lucrin once per month): 117.8 days; pain free days, percent ([6]; women, Lucrin once per month, 180 day treatment period): 74%; days of pain over the first three months ([6]; women, Lucrin slow release injection once per month): 19.4 days
